Reference: US11220693B2, “Method for converting monocot plant genome sequence in which nucleic acid base in targeted DNA sequence is specifically converted, and molecular complex used therein” (NATIONAL UNIVERSITY CORPORATION KOBE UNIVERSITY, priority 2015, dated 2022)

Key:
[1] = system: rice (Oryza sativa. L Japonica brand; Nipponbare) seeds; test: Effective concentration of Imazamox on rice plant body under aseptic culture conditions (seed germination); format: in vivo
Method: Based on 1/2 MS solid medium (MS mix (Sigma), sucrose 15.0 g/L, Gelrite (Wako Pure Chemical Industries, Ltd.) 4.0 g/L, pH 5.8), media in 9 stages (0 mg/L, 0.5 mg/L, 1 mg/L, 2 mg/L, 4 mg/L, 5 mg/L, 10 mg/L, 20 mg/L, 30 mg/L) with different Imazamox concentrations were produced. Successively, chaff of rice (Oryza sativa. L Japonica brand; Nipponbare) seeds was removed, the seeds were shaken in 70% ethanol for 1 min, and sterilized by immersing in 2.5% sodium hypochlorite for 20-30 min while allowing for penetration. […]
From the above, it was determined that the effective concentration of Imazamox under the aseptic culture conditions for rice plant body was 0.5 mg/L.

[2] = system: rice callus; test: Effective concentration of Imazamox on rice callus under aseptic culture conditions; format: cell-based, Oryza sativa; details: 2N6 medium, 28 days; for proliferation state of the callus: 31.5° C.
Method: Based on 2N6 solid medium (mentioned earlier), media in 4 stages (0 mg/L, 30 mg/L, 50 mg/L, 70 mg/L) with different Imazamox concentrations were produced. Callus was induced from the scutellum part of rice seed (mentioned earlier), inoculated to 2N6 solid medium added with Imazamox, cultured at 31.5° C. for 28 days in the dark all day, and the proliferation state of the callus was confirmed.
From the above, it was determined that the effective concentration of Imazamox for rice callus was 70 mg/L.

For COCc1cnc(C2=NC(C)(C(C)C)C(=O)N2)c(C(=O)O)c1 (stereo not drawn) [Imazamox], the “number of seeds, germination (7 days later)” value (from here on “number of seeds, germination”) ([1]; Imazamox 0.5 mg/L in 1/2 MS medium, 24 seeds) was 0, the germination circumstances ([1]; Imazamox 0.5 mg/L or more, 25° C., 7 days) was “browning of embryo stem and whitening of coleoptile was confirmed in all seeds” and the “survival rate (%)” value ([1]; Imazamox 0.5 mg/L, 7 days) was 0%. The “number of seeds, germination” value ([1]; Imazamox 1 mg/L in 1/2 MS medium, 23 seeds) was 0, the “survival rate (%)” value ([1]; Imazamox 1 mg/L, 7 days) was 0% and the “number of seeds, germination” value ([1]; Imazamox 2 mg/L in 1/2 MS medium, 24 seeds) was 0. For the same compound, the “survival rate (%)” value ([1]; Imazamox 2 mg/L, 7 days) was 0%, the “number of seeds, germination” value ([1]; Imazamox 4 mg/L in 1/2 MS medium, 24 seeds) was 0 and the “survival rate (%)” value ([1]; Imazamox 4 mg/L, 7 days) was 0%. For the same compound, the “number of seeds, germination” value ([1]; Imazamox 5 mg/L in 1/2 MS medium, 24 seeds) was 0, the “survival rate (%)” value ([1]; Imazamox 5 mg/L, 7 days) was 0% and the “number of seeds, germination” value ([1]; Imazamox 10 mg/L in 1/2 MS medium, 24 seeds) was 0. For the same compound, the “survival rate (%)” value ([1]; Imazamox 10 mg/L, 7 days) was 0%, the “number of seeds, germination” value ([1]; Imazamox 20 mg/L in 1/2 MS medium, 24 seeds) was 0 and the “survival rate (%)” value ([1]; Imazamox 20 mg/L, 7 days) was 0%. The “number of seeds, germination” value ([1]; Imazamox 30 mg/L in 1/2 MS medium, 24 seeds) was 0, the “survival rate (%)” value ([1]; Imazamox 30 mg/L, 7 days) was 0% and the “effective concentration of Imazamox for rice plant body” value ([1]; aseptic culture conditions, 1/2 MS medium, 7 days) was 0.5 mg/L. The “effective concentration of Imazamox for rice callus” value [2] was 70 mg/L, the “proliferation state of the callus” value ([2]; Imazamox 50 mg/L or below) was “mitotic proliferation of callus was observed” and the “proliferation state of the callus” value ([2]; Imazamox 70 mg/L) was “mitotic proliferation was inhibited”.
